Measured values published in patent US11214542B2, “Histone demethylase inhibitors” (CELGENE QUANTICEL RESEARCH, INC., priority 2012, dated 2022).

Each compound was assayed against JMJD2C (Homo sapiens (Human), UniProt Q9H3R0) (assay: JMJD2C TR-FRET in vitro enzyme inhibition assay). Conditions: 0.3 nM JMJD2C, H3K9me3 peptide, read-out: JMJ-D2C IC50.
Chain of JMJD2C (Q9H3R0 2-372): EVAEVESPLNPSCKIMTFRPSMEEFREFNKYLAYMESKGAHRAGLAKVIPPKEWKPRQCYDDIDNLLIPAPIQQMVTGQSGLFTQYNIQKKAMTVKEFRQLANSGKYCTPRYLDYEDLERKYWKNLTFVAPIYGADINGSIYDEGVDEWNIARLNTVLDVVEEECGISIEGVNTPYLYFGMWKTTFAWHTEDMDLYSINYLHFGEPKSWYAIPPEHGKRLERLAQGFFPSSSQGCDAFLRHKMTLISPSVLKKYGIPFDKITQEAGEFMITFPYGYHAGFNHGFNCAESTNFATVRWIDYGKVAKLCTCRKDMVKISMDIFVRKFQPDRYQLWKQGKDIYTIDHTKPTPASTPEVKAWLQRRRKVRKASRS
Assay type: biochemical
Excerpt: This assay determines the ability of a test compound to inhibit Jarid1A, Jarid1B, and JMJD2C demethylase activity. Baculovirus expressed Jarid1A (GenBank Accession #NM_001042603, AA1-1090) was purchased from BPS Bioscience (Cat #50110). Baculovirus expressed Jarid1B (GenBank Accession #NM_006618, AA 2-751) was purchased from BPS Bioscience (Cat #50121) or custom made by MolecularThroughput. Baculovirus-expressed JMJD2C (GenBank Accession #BC143571, AA 2-372) was purchased from BPS Bioscience (Cat #50105).
The ability of test compounds to inhibit the activity of JMJD2C was determined in 384-well plate format under the following reaction conditions: 0.3 nM JMJD2C, 300 nM H3K9me3-biotin labeled peptide (Anaspec cat #64360), 2 μM alpha-ketoglutaric acid in assay buffer of 50 mM HEPES, pH7.3, 0.005% Brij35, 0.5 mM TCEP, 0.2 mg/ml BSA, 50 μM sodium L-ascorbate, and 2 μM ammonium iron(II) sulfate. Reaction product was determined quantitatively by TR-FRET after the addition of detection reagent Phycolink Streptavidin-allophycocyanin (Prozyme) and Europium-anti-di-methylated histone H3 lysine 9 (H3K9me2) antibody (PerkinElmer) in the presence of 5 mM EDTA in LANCE detection buffer (PerkinElmer) at a final concentration of 50 nM and 1 nM, respectively.
The assay reaction was initiated by the following: 2 μl of the mixture of 900 nM H3K9me3-biotin labeled peptide and 6 μM alpha-ketoglutaric acid with 2 μl of 11-point serial diluted inhibitor in 3% DMSO were added to each well of the plate, followed by the addition of 2 μl of 0.9 nM JMJD2C to initiate the reaction. The reaction mixture was incubated at room temperature for 30 min, and terminated by the addition of 6 μl of 5 mM EDTA in LANCE detection buffer containing 100 nM Phycolink Streptavidin-allophycocyanin and 2 nM Europium-anti-H3K9me2 antibody. Plates were read by EnVisionMultilabel Reader in TR-FRET mode (excitation at 320 nm, emission at 615 nm and 665 nm) after 1 hr incubation at rt. A ratio was calculated (665/615) for each well and fitted to determine inhibition constant (IC50).
Compound “3-{[(6-chloro-1,2,3,4-tetra- hydronaphthalen-1-yl)methyl]- amino}pyridine-4-carboxylic acid [Example 68]” has an IC50 of 100 to 1000 nM. In the case of “3-{[(6-chloro-1-hydroxy- 1,2,3,4-tetrahydronaphthalen- 1-yl)methyl]amino}pyridine- 4-carboxylic acid [Example 67]”, the IC50 is reported as 100 to 1000 nM. `O=C(O)c1ccncc1NCC1CCOc2cc(F)ccc21` (stereo not drawn) [Example 65, 3-{[(7-fluoro-3,4-dihydro-2H-chromen-4-yl)methyl]amino}-pyridine-4-carhoxylic acid] gave an IC50 of no more than 100 nM.
